{
  "source": "patent US8962854B2",
  "about": "“Luminescent substrate for luciferase” (The University of Electro-Communications, priority 2011, dated 2015)",
  "key": {"firefly luciferase": {"target": "firefly luciferase (Photinus pyralis, UniProt P08659)", "sequence (P08659 whole entry)": "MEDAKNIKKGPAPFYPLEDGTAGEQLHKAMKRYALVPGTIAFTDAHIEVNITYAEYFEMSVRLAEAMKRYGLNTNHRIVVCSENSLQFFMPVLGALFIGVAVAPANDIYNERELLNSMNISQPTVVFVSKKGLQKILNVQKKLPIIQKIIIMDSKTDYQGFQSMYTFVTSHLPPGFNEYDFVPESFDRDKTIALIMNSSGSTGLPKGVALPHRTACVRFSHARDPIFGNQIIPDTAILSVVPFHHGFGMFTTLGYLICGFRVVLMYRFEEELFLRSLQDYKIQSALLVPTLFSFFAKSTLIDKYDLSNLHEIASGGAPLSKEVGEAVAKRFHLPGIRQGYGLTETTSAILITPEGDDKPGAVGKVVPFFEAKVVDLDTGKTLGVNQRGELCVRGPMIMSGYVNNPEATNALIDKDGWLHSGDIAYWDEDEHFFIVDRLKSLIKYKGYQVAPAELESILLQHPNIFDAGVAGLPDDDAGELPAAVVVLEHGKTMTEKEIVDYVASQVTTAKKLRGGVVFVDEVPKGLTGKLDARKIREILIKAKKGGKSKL", "assay": "Bioluminescent emission spectrum measurement", "assay_type": "biochemical", "settings": "ATP-Mg", "experimental": "In a 200 μL polystyrene tube, potassium phosphate buffer solution (0.5 M, pH 8.0, 20 μl), substrate solution (2.5 mM, 20 μl), enzyme solution (20 μl), to and ATP-Mg solution (10 mM, 40 μl) were mixed, and emission spectrum measurement was performed. An enzyme solution with a concentration of 17 μM was used. Enzymes with a concentration of 1.7 μM for the firefly luciferin and of 170 μM for the phenol-type luciferin, however, were used. The exposure time for emission spectrum measurement was 60 seconds. For the firefly luciferin, however, the time was five seconds."}, "[1]": {"settings": "University of Tokyo luciferin derivative; cited from earlier work"}, "[2]": {"settings": "reaction with firefly luciferase, substrate solution 2.5 mM, enzyme solution 17 μM, pH 8.0, exposure 60 seconds"}},
  "data": [
    {"smiles": "C=CCc1c(O)ccc2nc(C3=N[C@@H](C(=O)O)CS3)sc12", "note": "[7-allyl-firefly luciferin 35, 7-allyl-firefly luciferin]", "values": [
      {"measurement": "emission wavelength", "setting": "firefly luciferase; [2]", "value": 605, "unit": "nm"}
    ]},
    {"smiles": "Nc1ccc2nc(C3=N[C@@H](C(=O)O)CS3)sc2c1", "note": "[Aminoluciferin]", "values": [
      {"measurement": "emission wavelength", "setting": "[1]", "value": "approximately 610 nm"}
    ]},
    {"smiles": "O=C(O)C1CSC(c2nc3ccc(O)cc3s2)=N1", "note": "(stereo not drawn) [Firefly luciferin]", "values": [
      {"measurement": "emission wavelength", "setting": "firefly luciferase; firefly luciferin: enzyme 1.7 μM, exposure five seconds, pH 8.0", "value": 565, "unit": "nm"}
    ]},
    {"smiles": "C=CCc1c(O)ccc2cc(/C=C/C3=NC(C(=O)O)CS3)ccc12", "note": "(stereo not drawn) [compound 21]", "values": [
      {"measurement": "emission wavelength", "setting": "firefly luciferase; [2]", "value": "approximately 690 nm"},
      {"measurement": "emission wavelength", "setting": "firefly luciferase; reaction with firefly luciferase, substrate solution 2.5 mM, enzyme solution 17 μM, pH 8.0, exposure 60 seconds, listed as FIG. 2", "value": 690, "unit": "nm"}
    ]},
    {"smiles": "O=C(O)[C@H]1CSC(/C=C/c2ccc3cc(O)ccc3c2)=N1", "note": "[compound 39]", "values": [
      {"measurement": "emission wavelength", "setting": "firefly luciferase; [2]", "value": 660, "unit": "nm"}
    ]}
  ]
}
